Our source for the melting point values is US6855710B2, “Substituted indolines with an inhibitory effect on various kinases and complexes of CDKs” (Boehringer Ingelheim Pharma KG, priority 1998, dated 2005).

As to `CS(=O)(=O)N(CC(=O)O)c1cccc(N/C(=C2\C(=O)Nc3ccccc32)c2ccccc2)c1` [Example 318, (Z)-3-{1-[3-(N-carboxymethyl-N-methylsulphonyl-amino)-phenylamino]-1-phenyl-methylidene}-2-indolinone], the melting point is 270 °C (dec.).

`CC(=O)N(CCN1CCOCC1)c1ccc(N/C(=C2\C(=O)Nc3ccc([N+](=O)[O-])cc32)c2ccccc2)cc1` [Example 334, (Z)-3-{1-[4-(N-(2-morpholinoethyl)-N-acetyl-amino)-phenylamino]-1-phenyl-methylidene}-5-nitro-2-indolinone] registered a melting point of 229 °C.

Compound `CN(C(=O)CCNC(=O)OC(C)(C)C)c1ccc(N/C(=C2\C(=O)Nc3ccccc32)c2ccccc2)cc1` [Example 376, (Z)-3-{1-[4-(N-(2-tert.butoxycarbonylamino-ethylcarbonyl)-N-methyl-amino)-phenylamino]-1-phenyl-methylidene}-2-indolinone] displayed a melting point of 246 to 248 °C.

Turning to `CCN(CC)C(=O)c1ccc(N/C(=C2\C(=O)Nc3ccccc32)c2ccccc2)cc1`, the melting point is 202 to 204 °C.

Compound `CN(C)C(=O)C1CCN(Cc2ccc(N/C(=C3\C(=O)Nc4ccc([N+](=O)[O-])cc43)c3ccccc3)cc2)CC1` [Example 249, (Z)-3-{1-[4-(4-dimethylaminocarbonyl-piperidinomethyl)-phenylamino]-1-phenyl-methylidene}-5-nitro-2-indolinone] registered a melting point of 272 to 273 °C.

With `CC(C)(C)OC(=O)NCc1ccc(N/C(=C2\C(=O)Nc3ccc([N+](=O)[O-])cc32)c2ccccc2)cc1` [Example 113, (Z)-3-[1-(4-tert.butoxycarbonylaminomethyl-phenylamino)-1-phenyl-methylidene]-5-nitro-2-indolinone], the melting point was 234 to 236 °C (dec.).

`CCOC(=O)CNCCc1ccc(N/C(=C2\C(=O)Nc3ccc([N+](=O)[O-])cc32)c2ccccc2)cc1` [Example 178, (Z)-3-{1-[4-(2-ethoxycarbonylmethylamino-ethyl)-phenylamino]-1-phenyl-methylidene}-5-nitro-2-indolinone] yielded a melting point of 139 to 140 °C.

`CN(CC(=O)O)C(=O)c1ccc(N/C(=C2\C(=O)Nc3ccccc32)c2ccccc2)cc1` [Example 395, (Z)-3-{1-[4-(N-carboxymethyl-N-methyl-aminocarbonyl)-phenylamino]-1-phenyl-methylidene}-2-indolinone] displayed a melting point of 168 to 170 °C.

Consider `CN(C)CCCc1ccc(N/C(=C2\C(=O)Nc3ccc([N+](=O)[O-])cc32)c2ccccc2)cc1` [Example 283, (Z)-3-{1-[4-(3-dimethylamino-propyl)-phenylamino]-1-phenyl-methylidene}-5-nitro-2-indolinone], for which the melting point was 269 °C (dec.).

`CCS(=O)(=O)N(CC(=O)NCCN(C)C)c1ccc(N/C(=C2\C(=O)Nc3ccccc32)c2ccccc2)cc1` [Example 301, (Z)-3-{1-[4-(N-(2-dimethylamino-ethylaminocarbonylmethyl)-N-ethylsulphonyl-amino)-phenylamino]-1-phenyl-methylidene}-2-indolinone] gave a melting point of 203 °C.

The compound `CCN(CCO)CCc1ccc(N/C(=C2\C(=O)Nc3ccc([N+](=O)[O-])cc32)c2ccccc2)cc1` [Example 131, (Z)-3-{1-[4-(2-(N-(2-hydroxyethyl)-N-ethyl-amino)-ethyl)-phenylamino]-1-phenyl-methylidene}-5-nitro-2-indolinone] yielded a melting point of 165 to 166 °C.

In turn, `CN(C)CCNS(=O)(=O)c1ccc(N/C(=C2\C(=O)Nc3ccccc32)c2ccccc2)cc1` [Example 399, (Z)-3-{1-[4-(2-dimethylamino-ethylaminosulphonyl)-phenylamino]-1-phenyl-methylidene}-2-indolinone] showed a melting point of 233 to 235 °C.

Turning to `O=C1Nc2ccccc2/C1=C(/Nc1ccc(OCCN2CCCCC2)cc1)c1ccccc1` [Example 285, (Z)-3-{1-[4-(2-piperidinoethyloxy)-phenylamino]-1-phenyl-methylidene}-2-indolinone], the melting point is 198 to 200 °C.

As for `CC(=O)c1ccc(N/C(=C2\C(=O)Nc3ccccc32)c2ccccc2)cc1` [Example 60, (Z)-3-[1-(4-acetylphenylamino)-1-phenyl-methylidene]-2-indolinone], the melting point fell in the range of 207 to 209 °C.

Turning to `CC(=O)Nc1ccc(N/C(=C2\C(=O)Nc3ccccc32)c2ccccc2)cc1` [Example 31, (Z)-3-[1-(4-acetylamino-phenylamino]-1-phenyl-methylidene]-2-indolinone], the melting point lay within 236 to 238 °C.

Regarding `CN(C)CCS(=O)(=O)Nc1ccc(N/C(=C2\C(=O)Nc3ccccc32)c2ccccc2)cc1` [Example 379, (Z)-3-{1-[4-(2-dimethylamino-ethylsulphonylamino)-phenylamino]-1-phenyl-methylidene}-2-indolinone], the melting point lay within 214 to 216 °C.

As for `CN(CCCOc1ccc(N/C(=C2\C(=O)Nc3ccccc32)c2ccccc2)cc1)Cc1ccccc1` [Example 288, (Z)-3-{1-[4-(3-(N-benzyl-N-methyl-amino)-propyloxy)-phenylamino]-1-phenyl-methylidene}-2-indolinone], the melting point is 187 to 189 °C.

`C[C@@H](N)c1ccc(N/C(=C2\C(=O)Nc3ccc([N+](=O)[O-])cc32)c2ccccc2)cc1.Cl` came in with a melting point of 230 to 235 °C.

For `CN(C)CCN(c1ccc(N/C(=C2\C(=O)Nc3ccc([N+](=O)[O-])cc32)c2ccccc2)cc1)S(=O)(=O)Cc1ccccc1` [Example 313, (Z)-3-{1-[4-(N-(2-dimethylaminoethyl)-N-benzylsulphonyl-amino)-phenylamino]-1-phenyl-methylidene}-5-nitro-2-indolinone], the melting point amounted to 248 °C.

On to `CC(C)S(=O)(=O)N(CC(=O)N(C)C)c1ccc(N/C(=C2\C(=O)Nc3ccccc32)c2ccccc2)cc1` [Example 304, (Z)-3-{1-[4-(N-(dimethylaminocarbonylmethyl)-N-isopropylsulphonyl-amino)-phenylamino]-1-phenyl-methylidene}-2-indolinone], for which the melting point was 146 to 148 °C.

The compound `O=C(O)CCNCc1cccc(N/C(=C2\C(=O)Nc3ccc([N+](=O)[O-])cc32)c2ccccc2)c1` [Example 252, (Z)-3-{1-[3-(2-carboxyethylaminomethyl)-phenylamino]-1-phenyl-methylidene}-5-nitro-2-indolinone] came in with a melting point of 247 to 249 °C.

In turn, `CN(Cc1ccc(N/C(=C2\C(=O)Nc3ccc([N+](=O)[O-])cc32)c2ccccc2)cc1)C1CCCCC1` [Example 232, (Z)-3-{1-[4-(N-cyclohexyl-N-methyl-aminomethyl)-phenylamino]-1-phenyl-methylidene}-5-nitro-2-indolinone] yielded a melting point of 215 °C.

`CCOC(=O)COc1ccc(N/C(=C2\C(=O)Nc3ccccc32)c2ccccc2)cc1` [Example 289, (Z)-3-{1-[4-(ethyloxycarbonylmethyloxy)-phenylamino]-1-phenyl-methylidene}-2-indolinone] gave a melting point of 175 to 177 °C.

Broadly, the melting point is the temperature, or range, at which the solid turns liquid.
